Experimental data as given in US20040247589A1, “Anti-tumor activity from reptile serum” (priority 2001, published 2004).

Tests used:
[1] = tested on: normal bone marrow cells; assay: Cell proliferation assay (BrdU) in normal bone marrow cells; type: cell-based; details: normal human bone marrow cells
Experimental: (§1) Cell proliferation was assayed using the commercial ELISA kit BIOTRACK™ (RPN250, Amersham Life Sciences). The assay is based on incorporation of 5-bromo-2′-deoxyuridine (BrdU) during DNA synthesis. After treatment of cells with the tested agent for 24 hours, cells are incubated for 18 hours in the presence of 10 μM BrdU. This pyrimidine analog is incorporated into DNA and is detected using specific antibody conjugated to peroxidase following 3,3′,5′,5′-tetramethylbenzidine (TMB) as a substrate. The absorbance of the enzymatic product is measured at 450 nm.

[2] = tested on: PN71 cells; assay: Cell proliferation assay (BrdU) in PN71 cells; type: cell-based, murine
Experimental: as §1

**Q.** Which results are given for Nc1ccn([C@@H]2O[C@H](CO)[C@@H](O)[C@@H]2O)c(=O)n1 [Cytosar, Cytarabine]?
**A.** effect on proliferation (BrdU) of normal bone marrow cells [1]: indiscriminately destroys; effect on proliferation (BrdU) of PN71 cells [2]: indiscriminately destroys
